Experiment [1] in a line: FRAP (Ferric reducing antioxidant power) assay.
The nature of experiment [2]: TEAC (Trolox equivalent antioxidant capacity) assay.
Experiment [3] can be described thus: Superoxide radical scavenging activity.

The structures appear in SMILES notation.

The values that follow come from patent publication US20220183952A1, “FORMULATION FOR THE TOPICAL TREATMENT OF THE SKIN AND RELATED USE” (SVAS BIOSANA SPA, priority 2018, published 2022).

In turn, `O=C1O[C@H]([C@@H](O)CO)C(O)=C1O` [Vitamin C, vitamin C] had an FRAP in experiment [1] of 6.57 ± 1.00 Mmol Fe2+/g. Moreover, in experiment [2], the TEAC was 7.23 ± 0.28 mmol TE/g. In experiment [3], the “Superoxide radical scavenging activity, EC50” value came out at 60 ± 0 µg/mL.
In experiment [1], `Cc1cc(C(C)(C)C)c(O)c(C(C)(C)C)c1` [BHT, hydroxytoluene butylate] gave an FRAP of 0.416 ± 0.020 Mmol Fe2+/g. Further, the TEAC in experiment [2] was determined as 0.467 ± 0.005 mmol TE/g.
